One series deals with immature hCOs. The series is described as follows: immature hCO screen, force of contraction. It is filed as cell-based, human. Particulars: 2 days. How it is done:
The pole deflection was used to approximate the force of contraction as per (Mills et al., 2017a). A Leica DMi8 inverted high content Imager was used to capture a 10 s time-lapse of each hCO contracting in real time at 37° C. Custom batch processing files were written in Matlab R2013a (Mathworks) to convert the stacked TIFF files to AVI, track the pole movement (using vision.PointTracker), determine the contractile parameters, produce a force-time figure, and export the batch data to an Excel (Microsoft) spreadsheet.
The compound library included 5,000 biologically annotated pre-clinical, clinical, and tool compounds. They were selected based on a combination of criteria including balancing the number of external/internal compounds, diversity of annotated targets to cover greater than 1500 biological targets, and known targets associated with cell proliferation. […] Both negative vehicle (DMSO) and positive (CHIR99021) controls were included on each plate in each experiment (FIG. 2B,C).

Series [1] can be described thus: pharmacokinetic properties in vivo.
In series [2] the test system is mature hCOs. Description: mature hCO, force of contraction. It counts as cell-based, human. Particulars: 2 days, compound 3 at 3 μM, 63 at 0.3 μM, 65 at 1 μM. As for the experimental part:
hCOs were cultured in CTRL medium for formation for 5 days and then either kept in CTRL medium culture or changed to maturation medium (Mills et al., 2017a) comprising DMEM without glucose, glutamine and phenol red (ThermoFisher Scientific) supplemented with 4% […](without insulin) (ThermoFisher Scientific), 1% GlutaMAX (ThermoFisher Scientific), 200 μM L-ascorbic acid 2-phosphate sesquimagnesium salt hydrate and 1% Penicillin/Streptomycin (ThermoFisher Scientific), 1 mmol/L glucose and 100 μmon palmitic acid (conjugated to bovine serum albumin within B27 by incubating for 2h at 37° C., Sigma) with changes every 2-3 days.
The pole deflection was used to approximate the force of contraction as per (Mills et al., 2017a). A Leica DMi8 inverted high content Imager was used to capture a 10 s time-lapse of each hCO contracting in real time at 37° C. […]
Hits were next validated in mature hCOs using a targeted concentration range based on their active concentrations in the initial immature hCO screen (FIG. 3A). Proliferation markers were quantified using high magnification confocal imaging as we found flow cytometry to be inaccurate in hCO (data not shown). […]

The subject of series [3] is mature hCOs. Description: mature hCO, cardiomyocyte number, hCO size, bi-nucleation, cardiomyocyte size. It counts as cell-based, human. Particulars: for cardiomyocyte number / bi-nucleation / hCO size (α-actinin area): 3 μM compound 3 or 1 μM compound 65; for bi-nucleation: 4 days; for hCO size (α-actinin area): 7 days. How it is done:
For more detailed images an Olympus IX81 confocal microscope was used for mounted hCO imaging. For cell cycle analysis experiments 3 random fields of view were imaged and manually quantified for proliferation. These were added together to calculate the percentage of hPSC-CM proliferation in each hCO.
Cells were dissociated by washing in perfusion buffer at 37° C. (130 mM NaCl, 1 mM MgCl2, 5 mM KCl, 0.5 mM NaH2PO4, 10 mM HEPES, 10 mM Taurine, 10 mM glucose, 10 μM 2,3-butanedione monoxime, pH 7.4). hCO were then incubated in EDTA buffer at 37° C. for 5 min (130 mM NaCl, 5 mM KCl, 0.5 mM NaH2PO4, 10 mM HEPES, 10 mM Taurine, 10 mM glucose, 5 mM EDTA, 10 μM 2,3-butanedione monoxime, pH 7.4). hCO were washed in perfusion buffer and then incubated in perfusion buffer plus 1 mg/ml collagenase B (Roche) for 15 min at 37° C. on a shaker at 500 rpm. Equivolume 0.25% trypsin-EDTA (ThermoFisher) was then added and the hCOs were incubated for 10 min at 37° C. on a shaker at 500 rpm. Perfusion buffer with 5% FBS was then added and the single cells pelleted by centrifuging at 1000×g for 3 min. The cells were then resuspended in 1% para-formaldehyde and incubated for 5 min at room temperature. hCO were then centrifuged at 1000×g for 3 min, paraformaldehyde removed, suspended in PBS and counted using a haemocytometer.
Hits were next validated in mature hCOs using a targeted concentration range based on their active concentrations in the initial immature hCO screen (FIG. 3A). Proliferation markers were quantified using high magnification confocal imaging as we found flow cytometry to be inaccurate in hCO (data not shown). Compounds 3, 63 and 65 had no impact on contractile force (FIG. 3B) at concentrations of 3 μM, 0.3 μM and 1 μM, respectively. […] The effects of both compound 3 and compound 65 were reversible, with proliferation ceasing within 5 days of compound withdrawal (FIG. 8B). Therefore, compound 3 (FIG. 3G) and compound 65 (Goldberg et al., 2009) (FIG. 3H) are both capable of inducing bona fide cardiomyocyte proliferation in mature hCOs without adversely affecting contractile properties.

Consider `Cc1ccc(NC(=O)c2ccnc(N3CCOCC3)c2)cc1Nc1ccnc(N2CC(C)OC(C)C2)n1` (centres unmarked) [compound 3], for which the “contractile parameters / force of contraction” value in the series on immature hCOs is given as “without affecting contractile parameters”. Besides, in series [1], the pharmacokinetic properties result was “poor”. In addition, in the series on mature hCOs [2], the contractile force result is listed as “no impact”. Also, in the series on mature hCOs [3] (3 μM compound 3, 2 days), the “cardiomyocyte size with 10 μM simvastatin” value is “without significant changes”. Besides, in the series with mature hCOs [3], the cardiomyocyte number entry is given as “increase”, the bi-nucleation result is “without an increase” and the “hCO size (α-actinin area)” value is given as “increase”. The cardiomyocyte size result with mature hCOs [3] (3 μM, 2 days) was “decreases”. For the same molecule, the cardiomyocyte size result in the series on mature hCOs [3] (compound 3 or compound 65) is listed as “without an increase”.
Regarding `Cc1cc(Oc2ccnc(Nc3ccc(S(N)(=O)=O)cc3)c2)c(-c2ccccn2)nc1C` [compound 65], the “contractile parameters / force of contraction” value with immature hCOs is “without affecting contractile parameters”. The pharmacokinetic properties result in series [1] is recorded as “poor”. Further, in the series with mature hCOs [2], the contractile force result is on record as “no impact”. The “cardiomyocyte size, combined with 10 μM simvastatin” value with mature hCOs [3] (1 μM, 2 days) is on record as “increased”. Besides, in the series with mature hCOs [3], the cardiomyocyte number result was “increase”, the bi-nucleation result is listed as “without an increase” and the “hCO size (α-actinin area)” value was “increase”. Also, the cardiomyocyte size result in the series on mature hCOs [3] (compound 3 or compound 65) is on record as “without an increase”.

The values are drawn from patent US20220187282A1, “CARDIOMYOCYTE PROLIFERATION” (The Council of the Queensland Institute of Medical Research, priority 2019, published 2022).
